Reference: PubChem BioAssay (NCI)
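48-hour exposure; five concentrations; linearly interpolated endpoints. The concentration for 50% growth inhibition is given as GI50. At the TGI there is no net growth.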

Assays:
Test in all cases: NCI tumour cell line growth inhibition, 48 h
TK-10 renal = test system: TK-10 renal
HOP-92 NSCLC = test system: HOP-92 NSCLC
NCI-H460 lung = test system: NCI-H460 lung
OVCAR-4 ovarian = test system: OVCAR-4 ovarian
SF-268 CNS = test system: SF-268 CNS
HL-60(TB) leukemia = test system: HL-60(TB) leukemia
SF-295 CNS = test system: SF-295 CNS
NCI-H226 lung = test system: NCI-H226 lung
SK-OV-3 ovarian = test system: SK-OV-3 ovarian
MOLT-4 leukemia = test system: MOLT-4 leukemia
COLO 205 colon = test system: COLO 205 colon
M14 melanoma = test system: M14 melanoma
ACHN renal = test system: ACHN renal
RPMI-8226 leukemia = test system: RPMI-8226 leukemia
U251 CNS = test system: U251 CNS
SK-MEL-2 melanoma = test system: SK-MEL-2 melanoma
HT29 colon = test system: HT29 colon
SW-620 colon = test system: SW-620 colon
SNB-75 CNS = test system: SNB-75 CNS
SK-MEL-28 melanoma = test system: SK-MEL-28 melanoma
K-562 leukemia = test system: K-562 leukemia
MDA-MB-435 = test system: MDA-MB-435
BT-549 breast = test system: BT-549 breast
OVCAR-5 ovarian = test system: OVCAR-5 ovarian
OVCAR-3 ovarian = test system: OVCAR-3 ovarian
NCI/ADR-RES ovarian = test system: NCI/ADR-RES ovarian
CCRF-CEM leukemia = test system: CCRF-CEM leukemia
LOX IMVI melanoma = test system: LOX IMVI melanoma
CAKI-1 renal = test system: CAKI-1 renal
786-0 renal = test system: 786-0 renal
DU-145 prostate = test system: DU-145 prostate
SK-MEL-5 melanoma = test system: SK-MEL-5 melanoma
OVCAR-8 ovarian = test system: OVCAR-8 ovarian
HCT-15 colon = test system: HCT-15 colon
SF-539 CNS = test system: SF-539 CNS
T-47D breast = test system: T-47D breast
A498 renal = test system: A498 renal
HCT-116 colon = test system: HCT-116 colon
MALME-3M melanoma = test system: MALME-3M melanoma
A549 NSCLC = test system: A549 NSCLC
MCF7 breast = test system: MCF7 breast
PC-3 prostate = test system: PC-3 prostate
IGROV1 ovarian = test system: IGROV1 ovarian
KM12 colon = test system: KM12 colon
NCI-H522 lung = test system: NCI-H522 lung
NCI-H23 lung = test system: NCI-H23 lung
MDA-MB-231 breast = test system: MDA-MB-231 breast
SR leukemia = test system: SR leukemia
UO-31 renal = test system: UO-31 renal
RXF 393 renal = test system: RXF 393 renal
SNB-19 CNS = test system: SNB-19 CNS
EKVX NSCLC = test system: EKVX NSCLC
UACC-257 melanoma = test system: UACC-257 melanoma
SN12C renal = test system: SN12C renal
HS 578T breast = test system: HS 578T breast
HOP-62 NSCLC = test system: HOP-62 NSCLC
HCC-2998 colon = test system: HCC-2998 colon

Cc1cc2c(C(N)=O)c(N)n(-c3c(C)ccc(O)c3C)c2nc1C
GI50 (TK-10 renal): 4.11 µM
TGI (TK-10 renal): 23.9 µM
GI50 (HOP-92 NSCLC): 1 µM
TGI (HOP-92 NSCLC): 14.1 µM
GI50 (NCI-H460 lung): 4.77 µM
TGI (NCI-H460 lung): 31.2 µM
GI50 (OVCAR-4 ovarian): 0.998 µM
TGI (OVCAR-4 ovarian): 8.03 µM
GI50 (SF-268 CNS): 9.28 µM
TGI (SF-268 CNS): 52.9 µM
GI50 (HL-60(TB) leukemia): 4.4 µM
TGI (HL-60(TB) leukemia): > 100 µM
GI50 (SF-295 CNS): 0.871 µM
TGI (SF-295 CNS): 35.4 µM
GI50 (NCI-H226 lung): 0.569 µM
TGI (NCI-H226 lung): 4.89 µM
GI50 (SK-OV-3 ovarian): 12.2 µM
TGI (SK-OV-3 ovarian): 89 µM
GI50 (MOLT-4 leukemia): 2.86 µM
TGI (MOLT-4 leukemia): > 100 µM
GI50 (COLO 205 colon): 1.7 µM
TGI (COLO 205 colon): 11.7 µM
GI50 (M14 melanoma): 0.834 µM
TGI (M14 melanoma): 5.83 µM
GI50 (ACHN renal): 1.84 µM
TGI (ACHN renal): 10.5 µM
GI50 (RPMI-8226 leukemia): 3.48 µM
TGI (RPMI-8226 leukemia): > 100 µM
GI50 (U251 CNS): 4.23 µM
TGI (U251 CNS): 34.1 µM
GI50 (SK-MEL-2 melanoma): 3.59 µM
TGI (SK-MEL-2 melanoma): 21.2 µM
GI50 (HT29 colon): 0.585 µM
TGI (HT29 colon): > 100 µM
GI50 (SW-620 colon): 3.17 µM
TGI (SW-620 colon): 56.4 µM
GI50 (SNB-75 CNS): 1.05 µM
TGI (SNB-75 CNS): 8.3 µM
GI50 (SK-MEL-28 melanoma): 4.73 µM
TGI (SK-MEL-28 melanoma): > 100 µM
GI50 (K-562 leukemia): 2 µM
TGI (K-562 leukemia): > 100 µM
GI50 (MDA-MB-435): 1.04 µM
TGI (MDA-MB-435): 3.33 µM
GI50 (BT-549 breast): 3.06 µM
TGI (BT-549 breast): 16.7 µM
GI50 (OVCAR-5 ovarian): 3.1 µM
TGI (OVCAR-5 ovarian): 51.9 µM
GI50 (OVCAR-3 ovarian): 3.07 µM
TGI (OVCAR-3 ovarian): 14.7 µM
GI50 (NCI/ADR-RES ovarian): 6.48 µM
TGI (NCI/ADR-RES ovarian): 32.7 µM
GI50 (CCRF-CEM leukemia): 2.65 µM
TGI (CCRF-CEM leukemia): > 100 µM
GI50 (LOX IMVI melanoma): 1.5 µM
TGI (LOX IMVI melanoma): 4.85 µM
GI50 (CAKI-1 renal): 0.4 µM
TGI (CAKI-1 renal): 10.3 µM
GI50 (786-0 renal): 3.37 µM
TGI (786-0 renal): > 100 µM
GI50 (DU-145 prostate): 4.16 µM
TGI (DU-145 prostate): 19.7 µM
GI50 (SK-MEL-5 melanoma): 4.89 µM
TGI (SK-MEL-5 melanoma): 26.3 µM
GI50 (OVCAR-8 ovarian): 3.12 µM
TGI (OVCAR-8 ovarian): 18 µM
GI50 (HCT-15 colon): 5.51 µM
TGI (HCT-15 colon): 65.4 µM
GI50 (SF-539 CNS): 0.434 µM
TGI (SF-539 CNS): 2.88 µM
GI50 (T-47D breast): 6.68 µM
TGI (T-47D breast): > 100 µM
GI50 (A498 renal): 7.5 µM
TGI (A498 renal): 24.3 µM
GI50 (HCT-116 colon): 2.52 µM
TGI (HCT-116 colon): 15.2 µM
GI50 (MALME-3M melanoma): 3.08 µM
TGI (MALME-3M melanoma): 18.3 µM
GI50 (A549 NSCLC): 4.53 µM
TGI (A549 NSCLC): 47.4 µM
GI50 (MCF7 breast): 3.41 µM
TGI (MCF7 breast): > 100 µM
GI50 (PC-3 prostate): 32.7 µM
TGI (PC-3 prostate): > 100 µM
GI50 (IGROV1 ovarian): 3.04 µM
TGI (IGROV1 ovarian): 12 µM
GI50 (KM12 colon): 4.54 µM
TGI (KM12 colon): > 100 µM
GI50 (NCI-H522 lung): 1.48 µM
TGI (NCI-H522 lung): 5.09 µM
GI50 (NCI-H23 lung): 1.25 µM
TGI (NCI-H23 lung): 4.16 µM
GI50 (MDA-MB-231 breast): 2.12 µM
TGI (MDA-MB-231 breast): 13.9 µM
GI50 (SR leukemia): 2.47 µM
TGI (SR leukemia): > 100 µM
GI50 (UO-31 renal): 3.18 µM
TGI (UO-31 renal): 14.9 µM
GI50 (RXF 393 renal): 0.12 µM
TGI (RXF 393 renal): 0.855 µM
GI50 (SNB-19 CNS): 8.28 µM
TGI (SNB-19 CNS): > 100 µM
GI50 (EKVX NSCLC): 21.8 µM
TGI (EKVX NSCLC): 98.7 µM
GI50 (UACC-257 melanoma): 3.13 µM
TGI (UACC-257 melanoma): 51.6 µM
GI50 (SN12C renal): 2.48 µM
TGI (SN12C renal): 34.5 µM
GI50 (HS 578T breast): 1.44 µM
TGI (HS 578T breast): 7.18 µM
GI50 (HOP-62 NSCLC): 13 µM
TGI (HOP-62 NSCLC): > 100 µM
GI50 (HCC-2998 colon): 3.21 µM
TGI (HCC-2998 colon): 11.7 µM
